In patent US8293705B2, “HCV protease inhibitors and uses thereof” (Avila Therapeutics, Inc., priority 2007, dated 2012):

Experiments:
[1] = target: T1, HCV NS3/4A 1b protease R155K (Hepatitis C virus genotype 1b, UniProt Q9WMX2, R1181K); assay: HCV protease FRET assay (IC50_APP), Example 16; type: biochemical; details: reaction started immediately after enzyme addition, read-out: Inhibition (apparent IC50, IC50_APP), HCV R155K
T1 construct: 10× stocks of NS3/4A protease enzyme from Bioenza (Mountain View, Calif.); purchased Bioenza (Mountain View, Calif.)
Method: (§1) The following protocol was used to generate “apparent” IC50 (IC50 APP) values as depicted in Table 6, below. […] 5 μL of each enzyme were added to Corning (#3575) 384-well, black, microtiter plates (Corning, N.Y.) after spotting a 0.5 μL volume of 50% DMSO and serially diluted compounds prepared in 50% DMSO. Protease reactions were immediately started after enzyme addition with the addition of 45 μL of the FRET substrate and monitored for 60-90 minutes at λex485/λem520 in a Synergy^4 plate reader from BioTek (Winooski, Vt.). At the conclusion of each assay, progress curves from each well were examined for linear reaction kinetics and fit statistics (R^2, 95% confidence intervals, absolute sum of squares).
(§2) The compound numbers correspond to the compound numbers in Table 3. […] ;

[2] = target: T2, HCV NS3/4A 1b protease wild type (Hepatitis C virus genotype 1b, UniProt Q9WMX2); assay: HCV protease FRET assay (IC50_APP), Example 16; type: biochemical
T2 construct: 10× stocks of NS3/4A protease enzyme from Bioenza (Mountain View, Calif.); purchased Bioenza (Mountain View, Calif.)
Method: as §1, §2

[3] = target: T3, HCV NS3/4A 1b protease D168A (Hepatitis C virus genotype 1b, UniProt Q9WMX2, D1194A); assay: HCV protease FRET assay (IC50_APP), Example 16; type: biochemical
T3 construct: 10× stocks of NS3/4A protease enzyme from Bioenza (Mountain View, Calif.); purchased Bioenza (Mountain View, Calif.)
Method: as §1, §2

[4] = test system: HCV RNA replicon in cell line ET (luc-ubi-neo/ET), human Huh7 hepatoma; assay: Replicon luciferase assay, Example 26; type: cell-based; details: Hepatitis C virus, Huh-7, assay of Example 26, 72 hr; for EC50: read-out: Inhibition, Replicon, EC50 value; for EC90: read-out: Inhibition, Replicon, EC90 value
Method: The compounds were assayed to evaluate the antiviral activity and cytotoxicity of compounds using replicon-derived luciferase activity. This assay used the cell line ET (luc-ubi-neo/ET), which is a human Huh7 hepatoma cell line that contains an HCV RNA replicon with a stable luciferase (Luc) reporter and cell culture-adaptive mutations. The ET cell line was grown in a 5% CO2 incubator at 37° C. in Dulbecco's modified essential media (DMEM) supplemented with 2 mM L-glutamine, nonessential amino acids, 100 U of penicillin/ml, 100 μg of streptomycin/mL, and 10% fetal bovine serum. G418 (Geneticin; Invitrogen) was added at a final concentration of 400 ug//mL.
All cell culture reagents were obtained from Invitrogen (Carlsbad). Cells were trypsinized (1% trypsin:EDTA) and plated out at 5×10^3 cells/well in white 96-well assay plates (Costar) dedicated to cell number (cytotoxicity) or antiviral activity assessments. Test compounds were added at six 3-fold concentrations each and the assay was run in DMEM, 5% FBS, 1% pen-strep, 1% glutamine, 1% non essential amino acid. Human interferon alpha-2b (PBL Biolabs, New Brunswick, N.J.) was included in each run as a positive control compound. Cells were processed 72 hr post test compound addition when the cells were still subconfluent. Antiviral activity was measured by analyzing replicon-derived luciferase activity using the Steady-Glo Luciferase Assay System (Promega, Madison, Wis.) according to manufacturer's instruction. The number of cells in each well was determined by Cell Titer Blue Assay (Promega). Compound profile was derived by calculating applicable EC50 (effective concentration inhibiting virus replication by 50%), EC90 (effective concentration inhibiting virus replication by 90%), IC50 (concentration decreasing cell viability by 50%) and SI50 (selective index: […]) values.

`C=C[C@@H]1C[C@]1(NC(=O)[C@@H]1CC(OC(=O)N2Cc3cccc(F)c3C2)CN1C(=O)[C@H](CCC(=O)C#CC(C)(C)C)NC(=O)OC(C)(C)C)C(=O)NS(=O)(=O)C1CC1` (some centres unmarked) [Compound I-29] showed an IC50 [1] of less than 10 nM, an IC50 [2] of less than 10 nM and an IC50 [3] of less than 10 nM. It also gave an EC50 [4] of 10 to 100 nM.
In the case of `CC[C@@H]1C[C@]1(NC(=O)[C@@H]1CC(OC(=O)N2Cc3cccc(F)c3C2)CN1C(=O)[C@H](CCC(=O)C=C(C)C)NC(=O)OC(C)(C)C)C(=O)NS(=O)(=O)C1CC1` (some centres unmarked) [Compound I-33], the IC50 [1] is reported as 100 to 1000 nM, the IC50 [2] is reported as less than 10 nM and the IC50 [3] is reported as 1000 to 10000 nM.
In the case of `C=CC(=O)N1CCC/C=C\[C@@H]2C[C@@]2(C(=O)NS(=O)(=O)C2CC2)NC(=O)[C@@H]2CC(OC(=O)N3Cc4cccc(F)c4C3)CN2C(=O)[C@@H](NC(=O)OC(C)(C)C)C1` (stereo partly drawn) [Compound I-35, (1aR,3aS,5R,9S,16aS,Z)-11-acryloyl-9-(tert-butoxycarbonylamino)-1a-(cyclopropylsulfonylcarbamoyl)-3,8-dioxo-1,1a,2,3,3a,4,5,6,8,9,10,11,12,13,14,16a-hexadecahydrocyclopropa[n]pyrrolo[2,1-c][1,4,8]triazacyclopentadecin-5-yl-4-fluoroisoindoline-2-carboxylate], the IC50 [1] is reported as 10 to 100 nM, the IC50 [2] is reported as less than 10 nM and the IC50 [3] is reported as 10 to 100 nM. The EC50 [4] was 100 to 1000 nM and the EC90 [4] was 100 to 1000 nM.
With `C=CC(=O)N1CC/C=C\[C@@H]2C[C@@]2(C(=O)NS(=O)(=O)C2CC2)NC(=O)[C@@H]2CC(OC(=O)N3Cc4cccc(F)c4C3)CN2C(=O)[C@@H](NC(=O)OC(C)(C)C)CC1` (some centres unmarked) [Compound I-36] the IC50 [1] was less than 10 nM, the IC50 [2] was less than 10 nM and the IC50 [3] was less than 10 nM. For the same compound, the EC50 [4] was 100 to 1000 nM and the EC90 [4] was 100 to 1000 nM.
`C=CC(=O)N1C/C=C\[C@@H]2C[C@@]2(C(=O)NS(=O)(=O)C2CC2)NC(=O)[C@@H]2CC(OC(=O)N3Cc4cccc(F)c4C3)CN2C(=O)[C@@H](NC(=O)OC(C)(C)C)CCC1` (some centres unmarked) [Compound I-37] showed an IC50 [1] of 10 to 100 nM, an IC50 [2] of less than 10 nM and an IC50 [3] of 10 to 100 nM. The EC50 [4] was 100 to 1000 nM and the EC90 [4] was 1000 to 10000 nM.
For `C/C=C(\C)C(=O)CC[C@H](NC(=O)OC(C)(C)C)C(=O)N1CC(OC(=O)N2Cc3cccc(F)c3C2)C[C@H]1C(=O)N[C@]1(C(=O)NS(=O)(=O)C2CC2)C[C@H]1CC` (some centres unmarked) [Compound I-39], the IC50 [1] was 10 to 100 nM, the IC50 [2] was less than 10 nM and the IC50 [3] was 100 to 1000 nM.
Compound `C=CC(=O)NC[C@@H]1NC(=O)OCC(C)(C)CC/C=C/c2cccc3c2CN(C3)C(=O)O[C@@H]2C[C@@H](C(=O)N[C@]3(C(=O)NS(=O)(=O)C4CC4)C[C@H]3C=C)N(C2)C1=O` [Compound I-40] has an IC50 [1] of less than 10 nM, an IC50 [2] of less than 10 nM and an IC50 [3] of 10 to 100 nM.
Work on `C=CC(=O)NC[C@@H]1NC(=O)OCC(C)(C)CCCCc2cccc3c2CN(C3)C(=O)O[C@@H]2C[C@@H](C(=O)N[C@]3(C(=O)NS(=O)(=O)C4CC4)C[C@H]3C=C)N(C2)C1=O` [Compound I-42] yielded an IC50 [1] of 10 to 100 nM, an IC50 [2] of less than 10 nM and an IC50 [3] of 10 to 100 nM.
`CCCCC(NC(=O)[C@@H]1C[C@@H](OC(=O)N2Cc3cccc(F)c3C2)CN1C(=O)[C@H](CCC(=O)C=C(C)C)NC(=O)OC(C)(C)C)C(=O)NS(=O)(=O)C1CC1` (stereo partly drawn) [Compound I-44, (3R,5S)-1-((S)-2-(tert-butoxycarbonylamino)-7-methyl-5-oxooct-6-enoyl)-5-(1-(cyclopropanesulfonamido)-1-oxohexan-2-ylcarbamoyl)pyrrolidin-3-yl 4-fluoroisoindoline-2-carboxylate] showed an IC50 [1] of 1000 to 10000 nM, an IC50 [2] of less than 10 nM and an IC50 [3] of 1000 to 10000 nM.
`CC(C)(C)OC(=O)N[C@H]1CN(S(=O)(=O)c2ccccc2[N+](=O)[O-])CCC/C=C\[C@@H]2C[C@@]2(C(=O)NS(=O)(=O)C2CC2)NC(=O)[C@@H]2CC(OC(=O)N3Cc4cccc(F)c4C3)CN2C1=O` (some centres unmarked) [Compound I-45] showed an IC50 [1] of less than 10 nM, an IC50 [2] of less than 10 nM and an IC50 [3] of less than 10 nM. For the same compound, the EC50 [4] was 10 to 100 nM and the EC90 [4] was 100 to 1000 nM.
`C=CC(=O)N1CC(C(NC(C)=O)C(=O)N2CC(OC(=O)N3Cc4cccc(F)c4C3)C[C@H]2C(=O)N[C@]2(C(=O)NS(=O)(=O)C3CC3)C[C@H]2C=C)C1` (some centres unmarked) [Compound I-46] gave an IC50 [1] of less than 10 nM, an IC50 [2] of less than 10 nM and an IC50 [3] of 10 to 100 nM. For the same compound, the EC50 [4] was 1000 to 10000 nM and the EC90 [4] was 1000 to 10000 nM.
